# Data: patent publication US7015343B2, “Sulphonated dehydrogenated sylvate, the preparation and use” (Shanghai Xingkang Pharmaceuticals Research & Development …, priority 2001, dated 2006)
# Columns and labels:
# [1] = test system: gastric juice secretion of Pylorus-ligated rats; assay: Gastric juice secretion and acidity of pylorus-ligated rats after oral administration; type: in vivo, Wister rats; set-up: T.AC / MEL (10^3) / MEAH: unit not given here; conditions: for Total volume of gastric juice: 5 hours after pylorus ligation; for Total volume of gastric juice / MEL (10^3) / MEAH: n = 8, X ± S; for Inhibition ratio for total acid amount / Inhibition to gastric juice secretion: versus control group; for MEL (10^3): acid concentration of gastric juice; for MEAH: total acid amount in gastric juice; for T.AC: volume of 0.01 N NaOH to titrate to pH 7, n = 8, X ± S
# Description: (§1) Wister rats (200–250 g), half were male and half were female, were starved for 48 hours and the pylori were ligated. Immediately after ligation, a suspension or solution of a salt in distilled water was administered orally into the stomachs in an amount of 2.0 ml/Kg; while 0.5% MC of the same volume was given to the control group. After administration of the test salt for 5 hours, the rats were killed. Their cardias were ligated and their stomachs were taken out. The gastric juice was collected into centrifuge tube and centrifuged at 2500 rpm for 10 min, the volume after residue removed was recorded as the total volume of the gastric juice. The acidity of gastric juice and pepsin activity were measured with the supernatant of the gastric juice after centrifuging.
# (a) Measurement of the acidity of gastric juice: with 0.5 ml of gastric juice taken exactly, about 20 ml of distilled water added in, it was measured with pH meter. The mixture was titrated to pH 7 with 0.01 N NaOH solution, and the volume of 0.01 N NaOH solution used was recorded. Then, the volume (T.AC) was calculated corresponding to titrating to pH 7 with 0.01 N NaOH solution. Acid concentration of gastric juice (MEL)=(T.AC/2)×1000 Total acid amount in gastric juice (MEAH)=MEL×(total volume of gastric juice/1000) Inhibiting ratio on the secretion of gastric juice %=[(volume of the gastric juice of the control group−volume of the gastric juice of the treatment group)/volume of the gastric juice of the control group]×100% Inhibiting ratio on the total acid amount in gastric juice %=[(MEAH of the control group−MEAH of the treatment group)/MEAH of the control group]×100%
# pepsin = assay: Pepsin activity in gastric juice of pylorus-ligated rats (Mett tube method); type: in vivo, Wister rats; conditions: for activity of pepsin: n = 8, X ± S; for Inhibition ratio for pepsin activity: versus control group
# Description: as §1
# (b) Enzyme assay for pepsin (Mett tube method): 0.5 ml of gastric juice was added exactly into a clean 50 ml flask with a plug, the flask was shaken to get a homogeneous solution, then, 15.0 ml of 0.05 N HCL solution was added in, in the meantime, two 3.0–4.0 cm long Mett tubes were put inside. The flask was plugged, shaken to get a homogeneous solution, left to stand at 37° C. for 24 hours. The length (mm) of the transparent part at the two ends of each Mett tube was measured precisely to get four values. The mean value was based on the four values, and the pepsin activity was calculated. Inhibiting ratio of pepsin activity %=[(pepsin activity of the control group−pepsin activity of the treatment group)/pepsin activity of the control group]×100% Test Result: […]
# KunMing mice = assay: Acute toxicity of NIPWZ, oral administration to mice (LD50, Bliss's method); type: in vivo; conditions: for Death distribution 2 h / Death distribution 4 h / Death distribution 24 h / Death distribution 72 h / Number of death (F:M) / Ratio of death: 10 mice
# Description: 50 second grade KunMing mice were provided, each weighing 20.0±1.2 g, randomly divided into 5 groups, 10 for each group, 5 male and 5 female. Medicine was administered intra-gastrically by 40 ml/Kg once, the solvent was 0.5% MC. The doses for the 5 groups were: 4480 mg/Kg, 3000 mg/Kg, 2010 mg/Kg, 1350 mg/Kg, 910 mg/Kg, the ratio of any two abutted doses was 1:0.67. […] Wherein the LD50 was determined by Bliss's method.
substance,measurement,setting,value
Salts of Sulfodehydroabietic Acid with Bismuth [NIPWB],Total volume of gastric juice,[1]; oral 50 mg/Kg,6.5 ± 2.5 mL
same,Inhibition ratio for total acid amount,[1]; oral 50 mg/Kg,45.7%
same,Inhibition to gastric juice secretion,[1]; oral 50 mg/Kg,28.6%
same,MEL (10^3),[1]; oral 50 mg/Kg,2.42 ± 1.79
same,MEAH,[1]; oral 50 mg/Kg,15.9 ± 4.5
same,T.AC,[1]; oral 50 mg/Kg,4.85 ± 3.58
same,Total volume of gastric juice,[1]; oral 100 mg/Kg,7.6 ± 2.9 mL
same,Inhibition ratio for total acid amount,[1]; oral 100 mg/Kg,44.4%
same,Inhibition to gastric juice secretion,[1]; oral 100 mg/Kg,16.5%
same,MEL (10^3),[1]; oral 100 mg/Kg,2.16 ± 1.65
same,MEAH,[1]; oral 100 mg/Kg,16.3 ± 4.7
same,T.AC,[1]; oral 100 mg/Kg,4.32 ± 3.30
same,activity of pepsin,pepsin; oral 50 mg/Kg,0.74 ± 0.61 U
same,Inhibition ratio for pepsin activity,pepsin; oral 50 mg/Kg,50.0%
same,activity of pepsin,pepsin; oral 100 mg/Kg,0.36 ± 0.20 U
same,Inhibition ratio for pepsin activity,pepsin; oral 100 mg/Kg,75.7%
Salts of Sulfodehydroabietic Acid with Zinc [NIPWZ],Total volume of gastric juice,[1]; oral 50 mg/Kg,7.2 ± 2.9 mL
same,Inhibition ratio for total acid amount,[1]; oral 50 mg/Kg,52.9%
same,Inhibition to gastric juice secretion,[1]; oral 50 mg/Kg,20.9%
same,MEL (10^3),[1]; oral 50 mg/Kg,1.92 ± 1.47
same,MEAH,[1]; oral 50 mg/Kg,13.8 ± 4.2
same,T.AC,[1]; oral 50 mg/Kg,3.83 ± 2.93
same,Total volume of gastric juice,[1]; oral 100 mg/Kg,7.0 ± 3.1 mL
same,Inhibition ratio for total acid amount,[1]; oral 100 mg/Kg,47.1%
same,Inhibition to gastric juice secretion,[1]; oral 100 mg/Kg,23.1%
same,MEL (10^3),[1]; oral 100 mg/Kg,2.21 ± 1.32
same,MEAH,[1]; oral 100 mg/Kg,15.5 ± 4.1
same,T.AC,[1]; oral 100 mg/Kg,4.41 ± 2.64
same,Death distribution 2 h,"KunMing mice; mice, oral 910 mg/Kg",0
same,Death distribution 4 h,"KunMing mice; mice, oral 910 mg/Kg",0
same,Death distribution 24 h,"KunMing mice; mice, oral 910 mg/Kg",0
same,Death distribution 72 h,"KunMing mice; mice, oral 910 mg/Kg",0
same,Number of death (F:M),"KunMing mice; mice, oral 910 mg/Kg",0 (0:0)
same,Ratio of death,"KunMing mice; mice, oral 910 mg/Kg",0%
same,Death distribution 2 h,"KunMing mice; mice, oral 1350 mg/Kg",0
same,Death distribution 4 h,"KunMing mice; mice, oral 1350 mg/Kg",0
same,Death distribution 24 h,"KunMing mice; mice, oral 1350 mg/Kg",3
same,Death distribution 72 h,"KunMing mice; mice, oral 1350 mg/Kg",1
same,Number of death (F:M),"KunMing mice; mice, oral 1350 mg/Kg",4 (1:3)
same,Ratio of death,"KunMing mice; mice, oral 1350 mg/Kg",40%
same,Death distribution 2 h,"KunMing mice; mice, oral 2010 mg/Kg",0
same,Death distribution 4 h,"KunMing mice; mice, oral 2010 mg/Kg",0
same,Death distribution 24 h,"KunMing mice; mice, oral 2010 mg/Kg",7
same,Death distribution 72 h,"KunMing mice; mice, oral 2010 mg/Kg",0
same,Number of death (F:M),"KunMing mice; mice, oral 2010 mg/Kg",7 (5:2)
same,Ratio of death,"KunMing mice; mice, oral 2010 mg/Kg",70%
same,Death distribution 2 h,"KunMing mice; mice, oral 3000 mg/Kg",0
same,Death distribution 4 h,"KunMing mice; mice, oral 3000 mg/Kg",7
same,Death distribution 24 h,"KunMing mice; mice, oral 3000 mg/Kg",1
same,Death distribution 72 h,"KunMing mice; mice, oral 3000 mg/Kg",0
same,Number of death (F:M),"KunMing mice; mice, oral 3000 mg/Kg",8 (5:3)
same,Ratio of death,"KunMing mice; mice, oral 3000 mg/Kg",80%
same,Death distribution 2 h,"KunMing mice; mice, oral 4480 mg/Kg",7
same,Death distribution 4 h,"KunMing mice; mice, oral 4480 mg/Kg",3
same,Death distribution 24 h,"KunMing mice; mice, oral 4480 mg/Kg",0
same,Death distribution 72 h,"KunMing mice; mice, oral 4480 mg/Kg",0
same,Number of death (F:M),"KunMing mice; mice, oral 4480 mg/Kg",10 (5:5)
same,Ratio of death,"KunMing mice; mice, oral 4480 mg/Kg",100%
same,LD50,"KunMing mice; mice, oral administration, Bliss's method",1728 mg/kg
same,LD50 as multiple of the clinic dose,KunMing mice; taking 1000 mg/day for a 60 Kg human being,approximately 104 times
same,activity of pepsin,pepsin; oral 50 mg/Kg,0.88 ± 0.33 U
same,Inhibition ratio for pepsin activity,pepsin; oral 50 mg/Kg,40.5%
same,activity of pepsin,pepsin; oral 100 mg/Kg,0.66 ± 0.34 U
same,Inhibition ratio for pepsin activity,pepsin; oral 100 mg/Kg,55.4%
